Experiment [1] concerns the target Cbl-b (Homo sapiens (Human), UniProt Q13191). The experiment can be described thus: Cbl-b LCK Ub TR-FRET assay (Cbl-b Lck HTRF). In kind it is biochemical. Put shortly: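 TR-FRET (340 nm excitation, 615/665 nm emission) read after adding HA-ubiquitin–UBE2D2 thioester, anti-HA-D2 and streptavidin-Eu. Beforehand, compounds incubated 60 min with biotinylated Cbl-b, then 90 min with His-LCK and ATP (1 mM in 2× mix); IC50 from 10 concentrations, DMSO high and no-LCK low controls.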

Experiment [2] concerns the target c-Cbl (Homo sapiens (Human), UniProt P22681). The experiment can be described thus: C-Cbl LCK Ub TR-FRET assay (c-cbl Lck HTRF). In kind it is biochemical. To be noted: for (fold-selectivity): C-cbl Lck HTRF IC50 relative to Cbl-b Lck HTRF IC50. An outline of the steps: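 After the ubiquitination reaction, detection mixture was added and plates incubated 20 min at room temperature before reading. IC50 values were calculated with wells lacking LCK as the low control and DMSO as the high control.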

Data on 21 molecules can be found in US20250230147A1, “LACTAMS AS CBL-B INHIBITORS” (Genentech, Inc., priority 2021, published 2025).

Structures can show the parent of a compound that is named as a salt. Some results are limits rather than exact numbers.

Cbl-b, sequence (Q13191 40-426): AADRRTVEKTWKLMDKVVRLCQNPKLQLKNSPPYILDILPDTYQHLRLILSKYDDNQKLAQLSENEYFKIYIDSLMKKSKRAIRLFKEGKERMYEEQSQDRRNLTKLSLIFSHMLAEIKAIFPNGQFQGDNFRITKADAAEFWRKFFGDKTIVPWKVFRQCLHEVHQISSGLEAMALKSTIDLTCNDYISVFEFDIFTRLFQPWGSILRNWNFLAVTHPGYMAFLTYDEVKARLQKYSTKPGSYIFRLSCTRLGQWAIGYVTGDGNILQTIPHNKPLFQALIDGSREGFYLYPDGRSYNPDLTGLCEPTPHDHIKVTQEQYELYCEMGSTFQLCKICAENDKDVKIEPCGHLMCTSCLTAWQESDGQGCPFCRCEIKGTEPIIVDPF
c-Cbl, sequence (P22681 47-435): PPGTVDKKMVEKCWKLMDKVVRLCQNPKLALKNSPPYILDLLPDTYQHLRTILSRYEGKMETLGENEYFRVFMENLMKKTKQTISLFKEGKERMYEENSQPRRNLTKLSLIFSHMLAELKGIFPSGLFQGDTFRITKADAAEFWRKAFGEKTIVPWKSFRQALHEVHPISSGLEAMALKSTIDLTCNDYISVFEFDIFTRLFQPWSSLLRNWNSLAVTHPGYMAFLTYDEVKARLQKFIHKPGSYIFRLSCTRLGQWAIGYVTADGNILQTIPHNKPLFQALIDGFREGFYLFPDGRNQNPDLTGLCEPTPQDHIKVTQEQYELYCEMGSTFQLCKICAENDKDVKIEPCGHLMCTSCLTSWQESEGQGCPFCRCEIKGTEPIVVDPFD

`Cn1cnnc1[C@@H](F)C1(c2cccc(N3Cc4c(cc(CN5CC(C)(C)C5)cc4C(F)(F)F)C3=O)c2)COC1` [Compound 73, (S)-6-((3,3-dimethylazetidin-1-yl)methyl)-2-(3-(3-(fluoro(4-methyl-4H-1,2,4-triazol-3-yl)methyl)oxetan-3-yl)phenyl)-4-(trifluoromethyl)isoindolin-1-one] yielded an IC50 in experiment [1] of 140 nM. Also, in experiment [2], inhibition was half-maximal at 300 nM (IC50) and the “(fold-selectivity)” value is reported as 2.2x.
For `CC[C@H](C)Nc1cc(C2(Cc3nncn3C)COC2)cc(N2Cc3c(cccc3C(F)(F)F)C2=O)n1` [Compound 481, (S)-2-(6-(sec-butylamino)-4-(3-((4-methyl-4H-1,2,4-triazol-3-yl)methyl)oxetan-3-yl)pyridin-2-yl)-4-(trifluoromethyl)isoindolin-1-one], in that order: 110 nM, 420 nM and “(3.7x)”.
For `Cn1cnnc1[C@H](F)C1(c2cccc(N3Cc4c(cccc4-c4ccccc4)C3=O)c2)COC1` [Compound 210, (R)-2-(3-(3-(fluoro(4-methyl-4H-1,2,4-triazol-3-yl)methyl)oxetan-3-yl)phenyl)-4-phenylisoindolin-1-one], in that order: above 20000 nM, above 20000 nM and 1.0x.
In experiment [1], `CC(C)[C@H]1CNCCN1Cc1cc2c(c(C(F)(F)F)c1)CN(c1cccc(C3([C@@H](F)c4nncn4C)COC3)c1)C2=O` [Compound 96, 2-(3-(3((R)-fluoro(4-methyl-4H-1,2,4-triazol-3-yl)methyl)oxetan-3-yl)phenyl)-6-(((S)-2-isopropylpiperazin-1-yl)methyl)-4-(trifluoromethyl)isoindolin-1-one] had an IC50 of 12 nM. Further, in experiment [2], the IC50 turned out to be 18 nM and the “(fold-selectivity)” value came to 1.5x.
In experiment [1], `C[C@H]1CN(C)CCN1Cc1cc2c(c(C(F)(F)F)c1)CN(c1cccc(C3(Cc4nncn4C)CC(F)(F)C3)c1)C2=O` [Compound 214, (S)-2-(3-(3,3-difluoro-1-((4-methyl-4H-1,2,4-triazol-3-yl)methyl)cyclobutyl)phenyl)-6-((2,4-dimethylpiperazin-1-yl)methyl)-4-(trifluoromethyl)isoindolin-1-one] registered an IC50 of 42 nM. In experiment [2], the IC50 turned out to be 41 nM and the “(fold-selectivity)” value amounted to 0.96x.
For `Cn1cnnc1[C@@H](F)C1(c2cccc(N3Cc4c(cc(CN5CC6(CC6)C5)cc4C(F)(F)F)C3=O)c2)COC1` [Compound 79], in that order: 170 nM, 270 nM and 1.6x.
`COc1cc(C2(Cc3nncn3C)CCC2)cc(N2Cc3c(cc(CN4CCN(C)C[C@@H]4C(C)C)cc3C(F)(F)F)C2=O)n1` [Compound 365, (S)-6-((2-isopropyl-4-methylpiperazin-1-yl)methyl)-2-(6-methoxy-4-(1-((4-methyl-4H-1,2,4-triazol-3-yl)methyl)cyclobutyl)pyridin-2-yl)-4-(trifluoromethyl)isoindolin-1-one]: the IC50 was 12 nM in experiment [1] and 6.7 nM in experiment [2]. Besides, in experiment [2], the “(fold-selectivity)” value is on record as “(0.57x)”.
On to `Cn1cnnc1CC1(c2cccc(N3Cc4c(cc(CNC5(C)CCC5(C)C)cc4C(F)(F)F)C3=O)c2)CC(F)(F)C1` (centres unmarked) [Compound 355, 2-(3-(3,3-difluoro-1-((4-methyl-4H-1,2,4-triazol-3-yl)methyl)cyclobutyl)phenyl)-4-(trifluoromethyl)-6-(((1,2,2-trimethylcyclobutyl)amino)methyl) isoindin-1-one formate], for which the figures for the IC50 in experiment [1] and in experiment [2] were 14 nM and 9.1 nM, respectively.
Consider `Cn1cnnc1[C@H](F)C1(c2cccc(N3Cc4c(cc(CNCCCF)cc4C(F)(F)F)C3=O)c2)CC(F)(F)C1` [Compound 447, (R)-2-(3-(3,3-difluoro-1-(fluoro(4-methyl-4H-1,2,4-triazol-3-yl)methyl)cyclobutyl)phenyl)-6-(((3-fluoropropyl)amino)methyl)-4-(trifluoromethyl)isoindolin-1-one], for which the results for the IC50 in experiment [1] and in experiment [2] were 16 nM and 20 nM, respectively. Moreover, the “(fold-selectivity)” value in experiment [2] is “(1.2x)”.
Consider `Cn1cnnc1CC1(c2cccc(N3Cc4c(cc(CNCC5COC(C)(C)O5)cc4C(F)(F)F)C3=O)c2)CC(F)(F)C1` (centres unmarked) [Compound 357, 2-(3-(3,3-difluoro-1-((4-methyl-4H-1,2,4-triazol-3-yl)methyl)cyclobutyl)phenyl)-6-((((2,2-dimethyl-1,3-dioxolan-4-yl)methyl)amino)methyl)-4-(trifluoromethyl)isoindolin-1-one formate], for which the IC50 was 38 nM in experiment [1] and 41 nM in experiment [2].
For `Cn1cnnc1CC1(c2cccc(N3Cc4c(Cl)cc(CNC5(C)CCC5)cc4C3=O)c2)CC(F)(F)C1` [Compound 252, 4-chloro-2-(3-(3,3-difluoro-1-((4-methyl-4H-1,2,4-triazol-3-yl)-methyl)cyclobutyl)phenyl)-6-(((1-methylcyclobutyl)amino)methyl)isoindolin-1-one formate] the same measures were 13 nM and 11 nM.
Regarding `Cn1cnnc1[C@H](F)C1(c2cccc(N3Cc4c(cc(CN5CC(C(F)F)C5)cc4C(F)(F)F)C3=O)c2)COC1` [Compound 137, (R)-6-((3-(difluoromethyl)azetidin-1-yl)methyl)-2-(3-(3-(fluoro(4-methyl-4H-1,2,4-triazol-3-yl)methyl)oxetan-3-yl)phenyl)-4-(trifluoromethyl)isoindolin-1-one], inhibition in experiment [1] was half-maximal at 29 nM (IC50). Besides, in experiment [2], it took 57 nM to reach half-maximal inhibition (IC50) and the “(fold-selectivity)” value was determined as 1.9x.
For `Cn1cnnc1CC1(c2cccc(N3Cc4c(cc([C@H](N)C5CC5)cc4C(F)(F)F)C3=O)c2)CC(F)(F)C1` [Compound 435, (R)-6-(amino(cyclopropyl)methyl)-2-(3-(3,3-difluoro-1-((4-methyl-4H-1,2,4-triazol-3-yl)methyl)cyclobutyl)phenyl)-4-(trifluoromethyl)isoindolin-1-one], in that order: 19 nM, 19 nM and “(1.0x)”.
On to `CCNc1cc(C2(Cc3nncn3C)CC(F)(F)C2)cc(N2Cc3c(cc(CN4CCN(C)C[C@@H]4C(C)C)cc3C(F)(F)F)C2=O)n1` [Compound 236, (S)-2-(4-(3,3-difluoro-1-((4-methyl-4H-1,2,4-triazol-3-yl)methyl)-cyclobutyl)-6-(ethylamino)pyridin-2-yl)-6-((2-isopropyl-4-methylpiperazin-1-yl)methyl)-4-(trifluoromethyl)isoindolin-1-one formate], for which the figures for the IC50 in experiment [1] and in experiment [2] were 7.1 nM and 8 nM, respectively.
The molecule `CC(C)[C@H]1CN(C)CCN1Cc1cc2c(c(C(F)(F)F)c1)CN(c1cccc([C@]3([C@H](F)c4nncn4C)CCO3)c1)C2=O` (single isomer, unassigned) [Compound 262] returned an IC50 in experiment [1] of 580 nM. In experiment [2], it took 840 nM to reach half-maximal inhibition (IC50) and the “(fold-selectivity)” value is listed as “(1.4x)”.
Molecule `Cn1cnnc1[C@@H](F)C1(c2cccc(N3Cc4c(cc(CN5CCC6(CC6)C5)cc4C(F)(F)F)C3=O)c2)CC1` [Compound 28, (S)-6-(5-azaspiro[2.4]heptan-5-ylmethyl)-2-(3-(1-(fluoro(4-methyl-4H-1,2,4-triazol-3-yl)methyl)cyclopropyl)phenyl)-4-(trifluoromethyl)isoindolin-1-one] registered an IC50 in experiment [1] of 80 nM. Moreover, in experiment [2], half-maximal inhibition (IC50) required 180 nM and the “(fold-selectivity)” value was 2.2x.
On to `Cn1cnnc1[C@H](F)C1(c2cccc(N3Cc4c(cc(CN5CC(S(C)(=O)=O)C5)cc4C(F)(F)F)C3=O)c2)COC1` [Compound 163, (R)-2-(3-(3-(fluoro(4-methyl-4H-1,2,4-triazol-3-yl)methyl)oxetan-3-yl)phenyl)-6-((3-(methylsulfonyl)azetidin-1-yl)methyl)-4-(trifluoromethyl)isoindolin-1-one], for which the IC50 amounted to 130 nM in experiment [1] and 240 nM in experiment [2]. Further, the “(fold-selectivity)” value in experiment [2] came out at 1.9x.
In experiment [1], `CC(C)N(C)Cc1cc2c(c(C(F)(F)F)c1)CN(c1cccc(C3(Cc4nncn4C)CC(F)(F)C3)c1)C2=O` [Compound 416, 2-(3-(3,3-difluoro-1-((4-methyl-4H-1,2,4-triazol-3-yl)methyl)cyclobutyl)phenyl)-6-((isopropyl(methyl)amino)methyl)-4-(trifluoromethyl)isoindolin-1-one] gave an IC50 of 92 nM. Further, in experiment [2], the IC50 amounted to 110 nM and the “(fold-selectivity)” value is reported as “(1.2x)”.
The molecule `Cn1cnnc1[C@H](F)C1(c2cccc(N3Cc4c(cc(CN5CC(C)(CCl)C5)cc4C(F)(F)F)C3=O)c2)COC1` [Compound 103, (R)-6-((3-(chloromethyl)-3-methylazetidin-1-yl)methyl)-2-(3-(3-(fluoro(4-methyl-4H-1,2,4-triazol-3-yl)methyl)oxetan-3-yl)phenyl)-4-(trifluoromethyl)isoindolin-1-one] displayed an IC50 in experiment [1] of 15 nM. In addition, in experiment [2], the midpoint of inhibition, the IC50, lay at 22 nM and the “(fold-selectivity)” value is 1.5x.
For `C[C@@H](NC1(C)CCC1)c1cc2c(c(C(F)(F)F)c1)CN(c1cccc(C3([C@@H](F)c4nncn4C)COC3)c1)C2=O` [Compound 247, 2-(3-(3-((R)-fluoro(4-methyl-4H-1,2,4-triazol-3-yl)methyl)oxetan-3-yl)phenyl)-6-((R)-1-((1-methylcyclobutyl)amino)ethyl)-4-(trifluoromethyl)isoindolin-1-one], half-maximal inhibition in experiment [1] (IC50) required 7.6 nM. For the same molecule, in experiment [2], the IC50 was 11 nM and the “(fold-selectivity)” value is given as “(1.4x)”.
For `Cn1cnnc1[C@H](F)C1(c2cccc(N3Cc4c(cccc4C(F)F)C3=O)c2)COC1` [Compound 59, (R)-4-(difluoromethyl)-2-(3-(3-(fluoro(4-methyl-4H-1,2,4-triazol-3-yl)methyl)oxetan-3-yl)phenyl)isoindolin-1-one] the same measures were 590 nM, 1300 nM and 2.1x.
